Measured values reported in patent US10603261B2, “Composition for enhancing hair fiber properties” (The Procter & Gamble Company, priority 2014, dated 2020).

Assay: Combing force after leave-on hair treatment using neat material
Conditions: hair treated with neat material; 1 and 5 washes
From the text: This double combing apparatus is attached to an Instron Model 5564. The switch is combed 5 times with a fine-tooth comb and hanged onto the Instron load cell. Then, the hair switch is placed in the double comb apparatus. The Instron pulls the hair vertically at a rate of 10 mm/min until the hair switch clears the final comb. The peak force as the switch passes through the top comb is reported.
The treatment is repeated to two additional switches. The treated hair switches are allowed to rest for 24 hours under controlled temperature and relative humidity conditions (27° C. and 50% RH). After this time period, each hair switch is washed with a clarifying shampoo (see shampoo washing protocol below) and allowed to air dry for 24 hours under controlled temperature and relative humidity conditions (27° C. and 50% RH). The combing force is measured for each switch and an average for the three switches is calculated. […] Linoleic acid • b.
Each application consists of adding shampoo to the hair, milking for 30 seconds followed by rinsing for 30 seconds. Shampoo is then reapplied (0.1 g/g), milked for 30 seconds and rinsed for 30 seconds.

CCCCCCCC/C=C\CCCCCCCC(=O)O [Oleic acid]
combability (in words): better combability
